Data: patent publication US9340574B2, “Inhibitors of protein tyrosine phosphatases” (Indiana University Research and Technology Corporation, priority 2012, dated 2016)
Like-named read-outs stand apart in the source and are kept apart here.

Key:
TC-PTP = TC-PTP (Homo sapiens (Human), UniProt P17706); test: pNPP hydrolysis enzyme assay, TC-PTP; type: biochemical; details: for IC50: pNPP substrate
Protocol: (§1) Enzyme kinetic assay. PTP activity was assayed using p-nitrophenyl phosphate (pNPP) as a substrate in 3,3-dimethylglutarate buffer (50 mM 3,3-dimethylglutarate, pH 7.0, 1 mM EDTA, 150 mM NaCl, 2 mM DTT, 0.1 mg/mL BSA) at 25° C. The assays were performed in 96-well plates. Normally, to determine the IC50 values, the reaction was initiated by the addition of enzyme (final concentration at 10 nM) to a reaction mixture (0.2 mL) containing 2 mM (Km for the substrate) pNPP with various concentrations of inhibitors. The reaction rate was measured using a SpectraMax Plus 384 Microplate Spectrophotometer (Molecular Devices). To determine the mode of inhibition, the reactions were initiated by the addition of PTP-MEG2 to the reaction mixtures (0.2 mL) containing various concentrations of pNPP with different concentrations of the inhibitor 7. Data were fitted using SigmaPlot Enzyme Kinetics Module (Systat Software, Inc.).

CD45 = CD45 (Homo sapiens (Human), UniProt P08575); test: pNPP hydrolysis enzyme assay, CD45; type: biochemical
Protocol: as §1

LAR = LAR (Homo sapiens (Human), UniProt P10586); test: pNPP hydrolysis enzyme assay, LAR; type: biochemical
Protocol: as §1

SHP2 = SHP2 (Homo sapiens (Human), UniProt Q06124); test: pNPP hydrolysis enzyme assay, SHP2; type: biochemical
Protocol: as §1

HePTP = HePTP (Homo sapiens (Human), UniProt P35236); test: pNPP hydrolysis enzyme assay, HePTP; type: biochemical
Protocol: as §1

LYP = LYP (Homo sapiens (Human), UniProt Q9Y2R2); test: pNPP hydrolysis enzyme assay, LYP; type: biochemical
Protocol: as §1

VHR = VHR (Homo sapiens (Human), UniProt P51452); test: pNPP hydrolysis enzyme assay, VHR; type: biochemical
Protocol: as §1

SHP1 = SHP1 (Homo sapiens (Human), UniProt P29350); test: pNPP hydrolysis enzyme assay, SHP1; type: biochemical
Protocol: as §1

PTPβ = PTPβ (Homo sapiens, UniProt P23467); test: pNPP hydrolysis enzyme assay, PTPβ; type: biochemical
Protocol: as §1

PTPε = PTPε (Homo sapiens (Human), UniProt P23469); test: pNPP hydrolysis enzyme assay, PTPε; type: biochemical
Protocol: as §1

HepG2 hepatocytes = test: Insulin signaling in HepG2 hepatocytes; type: cell-based; details: HepG2, 1 hour pretreatment, 10 nM insulin 30 min
Protocol: Cell lysate (20 μg protein) was subjected to 10% SDS-PAGE and probed with phospho-Akt, phospho-IR (Y1162/1163) or Akt antibody, respectively. […] Cell lysate (20 μg protein) was subjected to 10% SDS-PAGE and probed with phospho-IR(Y1162/1163), phospho-Akt (pS473) or total Akt antibody, respectively. […] Cell lysate (20 μg protein) or insulin receptor immunoprecipitation beads were subjected to 10% SDS-PAGE and probed with phospho-Akt, Akt, insulin receptor beta or phospho-tyrosine antibody (4G10), respectively. The non-specific band from insulin receptor immunoprecipitates served as a loading control for insulin receptor and phospho-insulin receptor.
Western blot analysis. Cells were homogenized in the lysis buffer (50 mM Hepes, pH 7.5, 150 mM NaCl, 10% Glycerol, 1% Triton X-100, 1.5 mM MgCl2, 1 mM EGTA, 10 μM Sodium Pyrophosphate, 100 mM sodium fluoride and freshly added 100 μM sodium vanadate, 1 mM PMSF, 10 μg/ml Aprotinin, and 10 μg/mL Leupeptin). Protein extracts were resolved on an SDS-PAGE gel and transferred to nitrocellulose membrane. […] Protein signals were detected by incubation with HRP-conjugated secondary antibodies, followed by ECL detection reagent (Pierce). Western blots were scanned and quantified using the Quantity One software (Bio-Rad).

[1] = tested on: diet-induced obese C57BL/6 mice; test: Insulin tolerance test in diet-induced obese mice; type: in vivo, mouse; details: 5 mg/kg i.p. twice a day
Protocol: (§2) C57BL/6J mice were fed a high-fat diet for 10 weeks before Compound 7 or vehicle was injected intraperitoneally twice a day at a dose of 5 mg/kg body weight. FIG. 5A depicts insulin tolerance tests (ITT) performed on Day 7 by injecting intraperitoneally a bolus of 0.75 unit/kg of human regular insulin. […] FIG. 5C depicts glucose tolerance tests (GTT) carried out on Day 9 after a bolus of 1 g/kg glucose was injected intraperitoneally. […] FIG. 5E depicts pyruvate tolerance tests (PTT) performed on Day 12 after an injection of 2 g/kg pyruvate solution. […] At the end of 2-week injections of Compound 7, animals were fasted overnight and stimulated with a bolus of 1 unit of human regular insulin or saline via vena cava. Three minutes later, liver, skeletal muscle, and white adipose tissue (WAT) were collected sequentially for insulin signaling analysis. FIG. 5G depicts the phosphorylation of Tyr1162/1163 in insulin receptor (IR) and Ser473 phosphorylation in Akt kinases and the corresponding proteins in the liver, skeletal muscle, and white adipose tissue (WAT) were analyzed by immunoblots.
(§3) To this end, we intraperitoneally injected Compound 7 into diet-induced obese C57BL/6 mice at a dose of 5 mg/kg twice a day. […] After 7 days of injections, we performed insulin tolerance tests to measure insulin sensitivity in vehicle and Compound 7 treated mice.

[2] = tested on: diet-induced obese C57BL/6 mice; test: Glucose tolerance test in diet-induced obese mice; details: 5 mg/kg i.p. twice a day
Protocol: as §2, §3

[3] = tested on: diet-induced obese C57BL/6 mice; test: Pyruvate tolerance test in diet-induced obese mice; type: in vivo, mouse; details: 5 mg/kg i.p. twice a day
Protocol: as §2, §3

Sequence of TC-PTP (P17706 whole entry, looked up, species assumed): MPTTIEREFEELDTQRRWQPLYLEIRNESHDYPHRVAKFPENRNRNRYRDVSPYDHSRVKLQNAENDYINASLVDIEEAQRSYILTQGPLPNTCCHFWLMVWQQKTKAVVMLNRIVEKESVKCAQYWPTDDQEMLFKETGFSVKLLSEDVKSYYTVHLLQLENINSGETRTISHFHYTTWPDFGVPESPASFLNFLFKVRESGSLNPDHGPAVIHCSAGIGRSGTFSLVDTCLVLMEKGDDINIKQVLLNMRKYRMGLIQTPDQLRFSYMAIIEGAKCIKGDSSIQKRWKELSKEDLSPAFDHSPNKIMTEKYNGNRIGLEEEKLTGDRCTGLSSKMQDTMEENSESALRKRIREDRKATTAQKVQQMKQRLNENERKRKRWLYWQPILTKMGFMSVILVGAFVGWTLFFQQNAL
Sequence of PTPε (P23469 20-700): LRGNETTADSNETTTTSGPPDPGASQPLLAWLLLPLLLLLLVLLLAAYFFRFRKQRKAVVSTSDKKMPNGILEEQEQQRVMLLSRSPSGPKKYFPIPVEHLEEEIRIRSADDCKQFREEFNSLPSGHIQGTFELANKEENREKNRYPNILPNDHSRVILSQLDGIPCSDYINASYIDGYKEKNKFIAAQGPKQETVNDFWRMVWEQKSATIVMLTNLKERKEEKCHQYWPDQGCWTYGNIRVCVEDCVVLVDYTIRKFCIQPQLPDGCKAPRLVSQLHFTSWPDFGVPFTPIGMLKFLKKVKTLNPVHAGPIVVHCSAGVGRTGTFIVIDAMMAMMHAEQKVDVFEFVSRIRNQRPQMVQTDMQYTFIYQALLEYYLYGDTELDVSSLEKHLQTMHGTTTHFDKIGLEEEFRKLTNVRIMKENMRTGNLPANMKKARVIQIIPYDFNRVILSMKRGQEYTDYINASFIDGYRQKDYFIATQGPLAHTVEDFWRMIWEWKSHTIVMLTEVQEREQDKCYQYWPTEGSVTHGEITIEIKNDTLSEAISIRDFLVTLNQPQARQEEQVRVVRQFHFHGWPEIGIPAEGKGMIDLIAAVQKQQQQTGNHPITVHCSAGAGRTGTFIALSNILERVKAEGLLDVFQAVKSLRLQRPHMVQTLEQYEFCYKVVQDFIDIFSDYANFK
Sequence of PTPβ (P23467 23-1997 limits assumed): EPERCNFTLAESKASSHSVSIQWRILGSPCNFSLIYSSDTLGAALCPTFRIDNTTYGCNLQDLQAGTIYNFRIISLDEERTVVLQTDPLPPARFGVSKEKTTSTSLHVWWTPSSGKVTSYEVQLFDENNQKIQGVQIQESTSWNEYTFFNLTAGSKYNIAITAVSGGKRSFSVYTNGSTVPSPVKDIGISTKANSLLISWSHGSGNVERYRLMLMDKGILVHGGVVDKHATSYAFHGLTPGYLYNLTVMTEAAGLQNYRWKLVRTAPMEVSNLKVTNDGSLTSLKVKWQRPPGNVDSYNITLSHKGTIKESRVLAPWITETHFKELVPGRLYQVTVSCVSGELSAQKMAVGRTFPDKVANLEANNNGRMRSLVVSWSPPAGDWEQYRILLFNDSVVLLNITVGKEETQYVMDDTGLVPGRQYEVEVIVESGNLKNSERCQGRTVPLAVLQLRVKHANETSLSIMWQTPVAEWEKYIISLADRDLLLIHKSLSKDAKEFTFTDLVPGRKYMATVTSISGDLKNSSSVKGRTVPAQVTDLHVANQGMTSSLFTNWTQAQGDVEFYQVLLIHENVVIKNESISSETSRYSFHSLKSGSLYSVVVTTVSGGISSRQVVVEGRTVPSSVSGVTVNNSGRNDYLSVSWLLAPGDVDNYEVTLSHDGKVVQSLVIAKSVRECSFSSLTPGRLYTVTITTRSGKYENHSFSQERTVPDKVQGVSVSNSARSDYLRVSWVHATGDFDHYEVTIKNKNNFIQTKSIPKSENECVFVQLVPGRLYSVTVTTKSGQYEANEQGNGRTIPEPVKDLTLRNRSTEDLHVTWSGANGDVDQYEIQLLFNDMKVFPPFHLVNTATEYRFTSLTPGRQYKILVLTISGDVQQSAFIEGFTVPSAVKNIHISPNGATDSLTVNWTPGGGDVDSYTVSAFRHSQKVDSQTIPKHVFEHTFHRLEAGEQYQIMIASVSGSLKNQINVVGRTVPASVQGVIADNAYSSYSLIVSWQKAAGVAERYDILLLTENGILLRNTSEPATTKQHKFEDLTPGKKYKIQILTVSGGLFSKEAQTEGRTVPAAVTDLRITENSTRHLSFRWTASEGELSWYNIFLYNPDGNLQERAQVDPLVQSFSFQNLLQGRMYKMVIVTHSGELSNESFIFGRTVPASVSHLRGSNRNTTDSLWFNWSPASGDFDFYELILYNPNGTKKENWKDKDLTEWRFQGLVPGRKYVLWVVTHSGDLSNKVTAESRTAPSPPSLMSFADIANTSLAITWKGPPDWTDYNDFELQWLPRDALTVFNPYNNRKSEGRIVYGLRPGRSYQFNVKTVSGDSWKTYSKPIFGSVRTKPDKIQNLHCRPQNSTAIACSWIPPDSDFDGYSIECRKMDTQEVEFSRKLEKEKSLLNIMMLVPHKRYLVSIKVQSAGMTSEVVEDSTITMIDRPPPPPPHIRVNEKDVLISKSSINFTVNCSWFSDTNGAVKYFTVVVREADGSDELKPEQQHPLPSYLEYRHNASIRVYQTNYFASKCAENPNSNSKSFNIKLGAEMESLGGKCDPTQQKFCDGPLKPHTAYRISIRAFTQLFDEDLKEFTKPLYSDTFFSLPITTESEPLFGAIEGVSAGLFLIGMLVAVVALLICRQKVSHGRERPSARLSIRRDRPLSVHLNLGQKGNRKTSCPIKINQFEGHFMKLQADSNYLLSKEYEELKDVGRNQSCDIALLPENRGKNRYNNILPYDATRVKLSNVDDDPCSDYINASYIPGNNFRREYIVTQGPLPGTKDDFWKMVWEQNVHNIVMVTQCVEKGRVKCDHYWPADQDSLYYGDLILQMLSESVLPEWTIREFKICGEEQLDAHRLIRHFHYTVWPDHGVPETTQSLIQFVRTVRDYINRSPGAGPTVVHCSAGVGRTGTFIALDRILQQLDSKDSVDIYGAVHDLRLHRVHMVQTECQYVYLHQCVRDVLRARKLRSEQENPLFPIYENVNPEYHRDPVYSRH
Sequence of SHP2 (Q06124 whole entry, species assumed): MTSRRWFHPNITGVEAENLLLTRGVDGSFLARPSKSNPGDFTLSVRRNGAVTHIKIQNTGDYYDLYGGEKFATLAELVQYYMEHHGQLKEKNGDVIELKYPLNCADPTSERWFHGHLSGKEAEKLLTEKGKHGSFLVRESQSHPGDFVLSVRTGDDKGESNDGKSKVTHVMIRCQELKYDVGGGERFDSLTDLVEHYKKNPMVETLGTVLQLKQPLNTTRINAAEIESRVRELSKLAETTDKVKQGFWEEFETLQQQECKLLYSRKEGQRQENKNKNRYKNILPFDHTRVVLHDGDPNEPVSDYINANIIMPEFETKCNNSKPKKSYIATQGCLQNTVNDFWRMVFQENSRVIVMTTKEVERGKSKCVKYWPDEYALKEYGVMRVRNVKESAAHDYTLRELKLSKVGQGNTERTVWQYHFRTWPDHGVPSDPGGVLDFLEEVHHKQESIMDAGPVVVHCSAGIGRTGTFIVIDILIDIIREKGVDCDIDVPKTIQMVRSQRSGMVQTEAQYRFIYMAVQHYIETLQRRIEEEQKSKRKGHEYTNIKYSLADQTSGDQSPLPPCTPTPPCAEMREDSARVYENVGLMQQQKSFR
Sequence of LYP (Q9Y2R2 whole entry, species assumed): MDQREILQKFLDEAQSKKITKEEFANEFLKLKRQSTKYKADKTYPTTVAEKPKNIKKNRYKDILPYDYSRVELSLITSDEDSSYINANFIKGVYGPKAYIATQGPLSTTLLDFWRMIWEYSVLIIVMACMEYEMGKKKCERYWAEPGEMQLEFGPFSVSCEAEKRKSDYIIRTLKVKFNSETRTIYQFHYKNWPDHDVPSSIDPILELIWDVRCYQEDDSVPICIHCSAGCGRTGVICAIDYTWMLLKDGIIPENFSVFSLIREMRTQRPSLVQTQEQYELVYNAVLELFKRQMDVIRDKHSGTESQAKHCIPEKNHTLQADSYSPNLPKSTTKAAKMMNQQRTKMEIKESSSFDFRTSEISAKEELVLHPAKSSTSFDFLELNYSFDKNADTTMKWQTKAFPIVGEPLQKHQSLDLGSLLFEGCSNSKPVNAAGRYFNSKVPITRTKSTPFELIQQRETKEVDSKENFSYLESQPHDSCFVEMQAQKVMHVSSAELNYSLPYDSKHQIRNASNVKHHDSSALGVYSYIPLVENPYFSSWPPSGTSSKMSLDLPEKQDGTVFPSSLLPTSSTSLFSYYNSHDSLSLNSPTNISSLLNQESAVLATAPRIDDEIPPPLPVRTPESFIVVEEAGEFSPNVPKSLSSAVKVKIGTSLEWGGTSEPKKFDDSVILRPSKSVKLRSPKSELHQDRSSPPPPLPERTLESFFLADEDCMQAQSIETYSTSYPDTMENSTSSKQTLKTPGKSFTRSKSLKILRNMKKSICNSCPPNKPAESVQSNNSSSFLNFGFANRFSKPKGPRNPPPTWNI
Sequence of SHP1 (P29350 whole entry): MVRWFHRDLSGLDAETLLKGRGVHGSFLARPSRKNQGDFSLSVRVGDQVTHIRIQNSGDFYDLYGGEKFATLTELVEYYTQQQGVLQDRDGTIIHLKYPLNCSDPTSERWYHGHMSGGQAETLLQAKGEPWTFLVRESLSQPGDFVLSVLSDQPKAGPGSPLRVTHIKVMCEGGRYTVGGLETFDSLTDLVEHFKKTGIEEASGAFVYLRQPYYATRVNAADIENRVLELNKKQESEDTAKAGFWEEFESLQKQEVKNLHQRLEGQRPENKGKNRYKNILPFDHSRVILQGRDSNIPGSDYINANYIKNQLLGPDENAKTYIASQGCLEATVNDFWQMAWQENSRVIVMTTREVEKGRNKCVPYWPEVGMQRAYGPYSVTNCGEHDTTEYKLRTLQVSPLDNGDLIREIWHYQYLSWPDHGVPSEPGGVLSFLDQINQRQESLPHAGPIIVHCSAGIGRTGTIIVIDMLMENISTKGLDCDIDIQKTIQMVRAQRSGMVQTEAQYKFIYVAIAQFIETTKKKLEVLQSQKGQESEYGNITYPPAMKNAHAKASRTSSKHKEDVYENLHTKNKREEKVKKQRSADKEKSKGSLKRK

For `COc1cc(CC(=O)NCC(NC(=O)C(CCCNC(=O)c2cccc(I)c2)NC(=O)C(Cc2ccc(C(F)(F)P(=O)(O)O)cc2)NC(=O)c2ccc(C)c(Br)c2)C(N)=O)ccc1O` (stereo not shown) [Compound 7], which IC50 (TC-PTP; read-out: IC50 (nM) TC-PTP) is on record?
The IC50 was 830 nM.

What about the IC50 (TC-PTP; read-out: IC50 for TC-PTP) of the same compound?
The IC50 was 830 nM.

And the “selectivity for PTP-MEG2 over TC-PTP” value (TC-PTP; ratio of IC50 values)?
The value was “more than 10 fold”.

And the IC50 (CD45)?
The IC50 was > 10000 nM.

What about the IC50 (LAR) of the same compound?
Its IC50 is > 10000 nM.

What about the IC50 (SHP2) of the same compound?
The IC50 was > 10000 nM.

And the IC50 (HePTP)?
The IC50 was > 10000 nM.

And the IC50 (LYP)?
The IC50 was > 10000 nM.

What about the IC50 (VHR) of the same compound?
Its IC50 is > 10000 nM.

And the IC50 (SHP1)?
The IC50 was > 10000 nM.

What about the IC50 (PTPβ) of the same compound?
The IC50 was > 10000 nM.

What about the IC50 (PTPε) of the same compound?
Its IC50 is > 10000 nM.

What about the “insulin signaling (phospho-IR, phospho-Akt)” value (HepG2 hepatocytes) of the same compound?
Its value is “augmented insulin signaling”.

What about the “insulin sensitivity in insulin tolerance test” value ([1]; Day 7, at 15 and 60 minutes after 0.75 unit insulin) of the same compound?
The value was “significantly improved insulin sensitivity”.

What about the “improvement in insulin tolerance (AUC)” value ([1]; Day 7, vs vehicle) of the same compound?
The value was 14%.

And the “glucose clearance in glucose tolerance test” value ([2]; Day 9, at 15, 30, and 60 minutes)?
The value was “significantly enhanced glucose clearance”.

And the “improvement in glucose disposal (AUC)” value ([2]; Day 9, vs vehicle)?
Its value is 21%.

And the “hepatic gluconeogenesis in pyruvate tolerance test” value ([3]; Day 12)?
Its value is “significant suppression of hepatic gluconeogenesis”.

What about the “better pyruvate tolerance (AUC)” value ([3]; Day 12, vs vehicle) of the same compound?
The value was 25%.
